The text below walks through data of ChEMBL document CHEMBL1135799, “Graphical model for estimating oral bioavailability of drugs in humans and other species from their Caco-2 permeability and in vitro liver enzyme metabolic stability rates” (J Med Chem, 2002).

Data set [1] is described as follows: Metabolic stability observed at 30 min after administration in human liver microsomes. The format is ADME, Microsome. The note with it: read-out: R.
Data set [2] is described as follows: In vitro rate of absorption observed as Caco-2 permeability in humans. The format is ADME, cell-based. The note with it: human, read-out: Papp e-6.
A short description of data set [3]: Oral bioavailability in human. In kind it is ADME, organism-based. The note with it: in vivo.

The term Papp denotes a coefficient for how fast a substance crosses the barrier. For orientation: bioavailability means dose-corrected exposure relative to a reference, in per cent. High values mean much systemic uptake, low ones little systemic uptake. Regarding `COCCc1ccc(OCC(O)CNC(C)C)cc1` (centres undefined) [METOPROLOL], in data set [1], the remaining at 0.5 h was found to be 73%. Further, in data set [2], the Papp is 270 nm/s. This compound showed a bioavailability in data set [3] of 38%.
The corresponding values for `CC(C)(C)NC[C@H](O)COc1nsnc1N1CCOCC1` [TIMOLOL] are 71%, 128 nm/s and 50%.
Turning to `OC[C@@H](O)[C@@H](O)[C@H](O)[C@H](O)CO` [MANNITOL], the remaining at 0.5 h in data set [1] was determined as 100%. Further, the Papp in data set [2] was 20 nm/s. This compound showed a bioavailability in data set [3] of 18%.
For `CC(=O)CC(c1ccccc1)c1c(O)c2ccccc2oc1=O` (centres undefined) [WARFARIN], the Papp in data set [2] amounted to 383 nm/s.
With `COc1ccc2c(c1)c(CC(=O)O)c(C)n2C(=O)c1ccc(Cl)cc1` [INDOMETHACIN], in data set [1], the remaining at 0.5 h was 95%. The Papp in data set [2] stood at 204 nm/s. For the same compound, the bioavailability in data set [3] came to 98%.
In the case of `CC(C)NCC(O)COc1cccc2ccccc12` (centres undefined) [PROPRANOLOL], the remaining at 0.5 h in data set [1] amounted to 29%. In addition, in data set [2], the Papp was determined as 419 nm/s. This compound gave a bioavailability in data set [3] of 26%.
On the same counts, the results for `NC(=O)N1c2ccccc2C=Cc2ccccc21` [CARBAMAZEPINE] are 96%, 228 nm/s and 70%.
